The text below walks through data of patent publication US6503931B1, “Use of 4-amino pyridine for treatment of peripheral neuropathies” (The UAB Research Foundation, priority 1999, dated 2003).

What all share (assay type): in vivo, human
Data set [1] concerns subjects with GBS. In words: Motor strength on 0-5 ordinal scale, Phase I double-blind placebo controlled crossover study. An excerpt:
This was a Phase I double-blind, placebo controlled, crossover, dose escalating study in subjects with GBS similar to those proposed for MS and SCI. An initial trial of ten patients will be randomized to […] of the two treatment sequences (A or B) as shown below. The study population consists of subjects with GBS injury whose neurological status has been stable for at least eighteen months. Ten subjects will be enrolled. Motor strength was rated on the traditional 0-5 ordinal scale: 0—absent motor strength 1—trace motor strength 2—can move the specified joint but only with gravity eliminated 3—can move the joint against gravity but not against any opposing force 4—can move the joint against opposing force but the strength is not normal for the person or symmetrical 5—normal motor strength This scale was employed to measure the following motor strength for each of these joint motions on both the right and the left sides: hip flexion, hip adduction, hip abduction, knee flexion, knee extension, ankle dorsi-flexion, ankle plantar flexion, shoulder abduction, elbow extension, elbow flexion, wrist flexion, and wrist extension. [table]

In data set [2] the test system is subjects with GBS. In words: Hand grip strength on hand dynamometer, same study. Conditions: hand-held dynamometer; p=0.0243 paired Student's t-test; repeated measures ANOVA p=0.0715; FIG. 3. Here is the method:
This was a Phase I double-blind, placebo controlled, crossover, dose escalating study in subjects with GBS similar to those proposed for MS and SCI. An initial trial of ten patients will be randomized to […] of the two treatment sequences (A or B) as shown below. The study population consists of subjects with GBS injury whose neurological status has been stable for at least eighteen months. Ten subjects will be enrolled. Hand grip strength was measured on a hand dynamometer that had been calibrated. Each patient was given three trials separated by thirty second rest periods and the strongest of the three measurements was recorded for each hand. [table]

Data set [3] concerns subjects with GBS. As to the kind of experiment: Serum laboratories drawn at start and every week of the study. An excerpt:
This was a Phase I double-blind, placebo controlled, crossover, dose escalating study in subjects with GBS similar to those proposed for MS and SCI. An initial trial of ten patients will be randomized to […] of the two treatment sequences (A or B) as shown below.
The study population consists of subjects with GBS injury whose neurological status has been stable for at least eighteen months. Ten subjects will be enrolled.
In addition, serum laboratories were drawn at the beginning of the study and every week of the study. The serum laboratories included glucose, blood urea nitrogen, creatinine, uric acid, calcium, total protein, albumin, phosphate, total bilirubin, cholesterol, LDH, SGOT/AST, alkaline phosphatase, hematocrit, hemoglobin, red blood cell count, platelet count, and white blood cell count with differential.

Setting [4] is: serum laboratory, before change.
Setting [5] is: serum laboratory, statistically significant, not clinically significant.

Turning to `Nc1ccncc1` [4-aminopyridine], in the data set on subjects with GBS [1] (0-5 scale, 10-20 mg bid escalating, p<0.0001, Friedeman's, FIG. 1), the “Lower extremity strength, average motor score on the active medication” value was 3.7. In the data set on subjects with GBS [1] (0-5 scale, 10-20 mg bid escalating, p=0.0065, Friedeman's, FIG. 2), the “Upper extremity strength, average motor score after increase” value was 3.7. Moreover, in the data set on subjects with GBS [1] (0-5 scale, value before increase, FIG. 2), the “Upper extremity strength, average motor score, starting value” is given as 3.2. The “Lower extremity strength, average motor score, starting value” in the data set on subjects with GBS [1] (0-5 scale, value before increase, seven GBS patients, FIG. 1) was found to be 3.2. Also, in the data set with subjects with GBS [1] (patients on active agent first, motor and grip strength continued to drop for up to two additional weeks after one week washout), the “Duration of neural biological effects after stopping the drug” value is listed as “more than two weeks”. Also, in the data set on subjects with GBS [2], the “Grip strength, start of study compared to after four weeks of treatment” value is recorded as “increased significantly”. The “Hematocrit, starting value” in the data set on subjects with GBS [3] (before change) worked out at 42.7. The “All other laboratories, change while on the active agent” value with subjects with GBS [3] (glucose, BUN, creatinine, calcium, proteins, bilirubin, cholesterol, LDH, alkaline phosphatase, blood counts etc.) is recorded as “no significant change”. In addition, in the data set on subjects with GBS [3] (setting [4]), the “SGOT, starting value” is reported as 25.1 and the “Uric acid, starting value” worked out at 6.4. In the data set on subjects with GBS [3] (setting [5]), the “SGOT, after change on the active agent” value stood at 27.9 and the “Uric acid, after change on the active agent” value is recorded as 6.5. Also, in the data set with subjects with GBS [3] (statistically significant, not clinically significant), the “Hematocrit, after change on the active agent” value was 41.6.
